Measurements as given in EP4050002A1, “ANTI-PROLIFERATIVE AGENTS” (First Health Pharmaceuticals B.V., priority 2021, dated 2022).
Where two headings read alike, the source gives them in different places.

Tests used:
[1] = Pharmacokinetic studies, single administration; format: in vivo, male Swiss albino mice; details: for MRT last: read-out: MRT0-last
Procedure: The pharmacokinetic study was performed in male Swiss albino mice from Hylasco Biotechnology Pvt. Ltd. (A Charles River technology Licensee). The tissue distribution study was performed in male Swiss albino mice and in male FOXN1^nu/nu nude mice (Envigo spa). The efficacy study was performed in male FOXN1^nu/nu nude mice.
Single intravenous administration studies were done as follows: • 1. Compound 5 • dose: 1 mg/kg • dose concentration: 0.2 mg/ml in 10% DMSO and 10% Solutol in WFI (90%). • volume: 5 ml/kg • blood withdrawal time points: 0.083, 0.25, 0.5, 1, 2, 4, 8, 24 hours post administration • 2. Compound 3 • […] • dose concentration: 0.2 mg/ml in 10% DMSO and 10% Solutol in WFI (90%). • volume: 5 ml/kg • blood withdrawal time points: 0.083, 0.25, 0.5, 1, 2, 4, 8, 24 hours post administration
Single intraperitoneal administration studies were done as follows: • 1. Compound 5 • dose 1: 45 mg/kg • dose concentration: […] in 10% DMSO, 5% TWEEN 80 and WFI (85%) • volume: 5 ml/kg • blood withdrawal time points: 0.25, 0.5, 1, 2, 4, 6, 8, 24 hours post administration • brain, liver and lungs collected at 4, 8 and 24 hours • 2. Compound 5 • dose 2: 10 mg/kg • dose concentration: 2 mg/ml in 10% DMSO, 10% Solutol and WFI (90%). • volume: 5 ml/kg • blood withdrawal time points: 0.25, 0.5, 1, 2, 4, 6, 8, 24 hours post administration
Single oral administration studies were done as follows: • 1. Compound 5 • dose: 45 mg/kg • dose concentration: 4.5 mg/ml in Labrasol (30%), Capmul PG 8 (30%), Cremophor EL (10%) and PEG (30%) • volume given by oral gavage: 10 ml/Kg • blood withdrawal time points: 0.08, 0.25, 0.5, 1, 2, 4, 6, 8, 24 hours post administration
Single intra tracheal administration studies were done as follows: • 1. Compound 5 • dose: 0.08 mg/kg • dose concentration: 0.04 mg/ml in DMSO (1%) and WFI (99%) • volume given by intra tracheal route: 2 ml/Kg • blood withdrawal time points: 0.03, 0.08, 0.17, 0.25, 0.75, 1.5, 2, 4 hours post administration
Animals were observed up to 24 hours after dose administration for behavioral or physical alterations. For blood withdrawal, mice were anesthetized using gaseous anesthesia and 0.2 to 0.3 ml of blood samples were collected in Li-Heparin containing tubes at the time points above indicated, stored on ice, centrifuged within 15 minutes to separate plasma at 1540 ref (5000 rpm) at 4°C for 10 minutes; plasma was separated and transferred to new tubes.
Selected organs were collected at 4, 8 and 24 hours for drug distribution studies: mice were anesthetized and intra-cardiac whole body perfusion was performed using chilled saline. Separated tissues were immediately washed, dried, weighed and frozen at -80±10°C until homogenization. The levels of compound in the tissues and in plasma were quantified by LC-MS/MS, using as instrument Q-TRAP 500, with a column Phenomenex, KINETEX 5µ EVO C18 50 mm X 4.5 mm (Phenomenex). The mobile phase employed was composed as follows: aqueous reservoir, 10 mM Ammonium Acetate with 0.1% Formic acid in MilliQ water; organic reservoir, Acetonitrile:Methanol (50:50, v/v); flow rate 1 ml/min; injection volume 10µl; rinsing solution, Acetonitrile:Methanol:Water (20:60:20, v/v).
Calibration Curve & Quality Control samples preparation: 0.5 µl of calibration curve standards were diluted 25X with blank matrix (i.e. Acetonitrile:Methanol (1:1, v/v)) and precipitated with 200 µl of acetonitrile containing internal standard at 200 ng/ml concentration, then vortexed for 5 min at 850 rpm, centrifuged at 4000 rpm for 5 min at 4°C, from this 110 µl of supernatant was separated and diluted with 130 µl of methanol:water, (1:1 v/v) .
Telmisartan (200 ng/ml) was used as internal standard. Telmisartan was spiked in 100% acetonitrile to a final concentration of 200 ng/ml. […]

[2] = Tissue distribution after single I.P. administration; format: in vivo, male Swiss Albino Mice
[3] = I.P. 1, 45 mg/kg, TWEEN-based vehicle
[4] = I.P. 2, 10 mg/kg, Solutol-based vehicle
[5] = mouse, in vivo, iv, I.V., 1 mg/kg
[6] = mouse, plasma, ip, I.P. 1, 45 mg/kg, TWEEN-based vehicle
[7] = mouse, plasma, ip, I.P. 2, 10 mg/kg, Solutol-based vehicle
[8] = mouse, plasma, iv, I.V., 1 mg/kg
[9] = mouse, plasma, po, P.O., 45 mg/kg
[10] = mouse, plasma, I.T., 0.08 mg/kg

Work on `CCCCc1cn(-c2ccc(-c3nnc(-c4ccccc4C(F)(F)F)o3)cc2)nn1` [Compound 5] yielded an AUCExtra [1, 3] of 14.86%, an F [1, 3] of 136% and an AUCExtra [1, 4] of 5.02%. The F [1, 4] was 135%, the AUCExtra ([1]; I.T., 0.08 mg/kg) was 2.92% and the AUCExtra ([1]; I.V., 1 mg/kg) was 3.98%. For the same compound, the AUCExtra ([1]; P.O., 45 mg/kg) was 16.91%, the F ([1]; P.O., 45 mg/kg) was 95% and the bioavailability ([1]; mouse, in vivo, ip, intraperitoneal route, read-out: absolute bioavailability (F)) was greater than 100%. The Vd [1, 5] was 8.2 L/kg, the clearance [1, 5] was 40 mL/min/kg and the AUC(0-inf) [1, 6] was 25600 ng·h/mL. For the same compound, the AUC(0-t) [1, 6] was 21800 ng·h/mL, the Cmax [1, 6] was 3700 ng/mL and the Tmax [1, 6] was 2 h. For the same compound, the MRT last [1, 6] was 7.46 h, the AUC(0-inf) [1, 7] was 5630 ng·h/mL and the AUC(0-t) [1, 7] was 5350 ng·h/mL. It also gave a Cmax [1, 7] of 692 ng/mL, a Tmax [1, 7] of 2 h and an MRT last [1, 7] of 6.49 h. The AUC(0-inf) [1, 8] was 417 ng·h/mL, the AUC(0-t) [1, 8] was 400 ng·h/mL and the C0 [1, 8] was 879 ng/mL. For the same compound, the half-life [1, 8] was 2.37 h, the MRT last [1, 8] was 1.09 h and the AUC(0-inf) [1, 9] was 17800 ng·h/mL. For the same compound, the AUC(0-t) [1, 9] was 14800 ng·h/mL, the Cmax [1, 9] was 1350 ng/mL and the Tmax [1, 9] was 4 h. It also gave an MRT last [1, 9] of 9.05 h, an AUC(0-inf) [1, 10] of 815 ng·h/mL and an AUC(0-t) [1, 10] of 791 ng·h/mL. The Cmax [1, 10] was 1950 ng/mL, the Tmax [1, 10] was 0.03 h and the MRT last [1, 10] was 0.72 h. For the same compound, the Kidney to plasma ([2]; 4 hours after single administration I.P. 45 mg/Kg) was 11.5, the Kidney to plasma ([2]; 8 hours after single administration I.P. 45 mg/Kg) was 9.2 and the Kidney to plasma ([2]; 24 hours after single administration I.P. 45 mg/Kg) was 9.3.
